Assay results published in ChEMBL document CHEMBL4819014, “Design, synthesis and biological evaluation of imidazole and triazole-based carbamates as novel aromatase inhibitors” (Eur J Med Chem, 2021).
Each block holds one compound with its values, some of them ahead of it. Activity calls are given as the source filed them. The calls are words filed in the database; no cut-off is given here.

Experiments:
[1] = target: T1, CYP19A (aromatase) (Homo sapiens, UniProt P11511); experiment: Inhibition of human CYP19A at 1 uM measured every 1 min for 60 mins by flourimetric assay
T1 sequence (P11511 whole entry): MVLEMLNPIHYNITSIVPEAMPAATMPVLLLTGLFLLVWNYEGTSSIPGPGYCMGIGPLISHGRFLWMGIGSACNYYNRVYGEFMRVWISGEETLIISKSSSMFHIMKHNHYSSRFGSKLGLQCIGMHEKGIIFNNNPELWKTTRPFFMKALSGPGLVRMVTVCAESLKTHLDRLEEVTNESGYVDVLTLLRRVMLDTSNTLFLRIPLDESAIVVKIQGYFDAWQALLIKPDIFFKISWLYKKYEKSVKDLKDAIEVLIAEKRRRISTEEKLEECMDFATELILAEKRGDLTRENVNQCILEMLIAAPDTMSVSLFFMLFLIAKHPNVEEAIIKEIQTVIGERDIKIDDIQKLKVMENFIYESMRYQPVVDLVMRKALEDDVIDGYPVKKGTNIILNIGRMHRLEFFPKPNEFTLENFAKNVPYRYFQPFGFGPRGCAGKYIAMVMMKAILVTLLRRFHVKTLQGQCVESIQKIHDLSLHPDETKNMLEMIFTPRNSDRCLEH

[2] = target: T2, Aromatase (Homo sapiens, UniProt P11511); experiment: Inhibition of human CYP19A measured every 1 min for 60 mins by flourimetric assay
T2 sequence (P11511 whole entry): T1 sequence (P11511 whole entry)

[3] = system: MCF7; experiment: Cytotoxicity against human MCF7 cells assessed as metabolic activity at 50 uM measured after 72 hrs by MTT assay; assay type: functional
[4] = system: MCF7; experiment: Induction of cell cycle arrest in human MCF7 cells assessed as accumulation of cells in S phase measured after 24 hrs by PI staining based flow cytometry method; assay type: functional; conditions: dose 10-250 µM
[5] = system: MCF7; experiment: Cytotoxicity against human MCF7 cells assessed as lactate dehydrogenase activity measured after 24 hrs by microplate reader method relative to control; assay type: functional
[6] = system: MCF7; experiment: Induction of cell cycle arrest in human MCF7 cells assessed as decrease in accumulation of cells in G1 phase at 100 to 250 uM measured after 24 hrs by PI staining based flow cytometry method; assay type: functional; conditions: dose 100-250 µM
[7] = system: MCF7; experiment: Cytotoxicity against human MCF7 cells assessed as lactate dehydrogenase activity at 250 uM measured after 24 hrs by microplate reader method relative to control; assay type: functional
[8] = system: MCF7; experiment: Cytotoxicity against human MCF7 cells assessed as metabolic activity measured after 48 hrs by MTT assay; assay type: functional, cell-based; conditions: dose 10-250 µM
[9] = system: MCF7; experiment: Cytotoxicity against human MCF7 cells assessed as metabolic activity at 10 to 250 uM measured after 24 hrs by MTT assay; assay type: functional; conditions: dose 10-250 µM
[10] = system: MCF7; experiment: Induction of cell cycle arrest in human MCF7 cells assessed as accumulation of cells in G2/M phase at 100 to 250 uM measured after 24 hrs by PI staining based flow cytometry method; assay type: functional; conditions: dose 100-250 µM
[11] = system: MCF7; experiment: Cytotoxicity against human MCF7 cells assessed as metabolic activity at 10 uM measured after 24 hrs by MTT assay; assay type: functional
[12] = system: MCF7; experiment: Cytotoxicity against human MCF7 cells assessed as metabolic activity at 100 uM measured after 48 hrs by MTT assay; assay type: functional
[13] = system: MCF7; experiment: Cytotoxicity against human MCF7 cells assessed as metabolic activity at 25 uM measured after 72 hrs by MTT assay; assay type: functional
[14] = system: MCF7; experiment: Cytotoxicity against human MCF7 cells assessed as metabolic activity at 250 uM measured after 48 hrs by MTT assay; assay type: functional
[15] = system: MCF7; experiment: Cytotoxicity against human MCF7 cells assessed as metabolic activity at 10 uM measured after 72 hrs by MTT assay; assay type: functional

SMILES: O=C(Nc1ccc(Cl)cc1)OC(Cn1ccnc1)c1ccccc1 (stereo not drawn)
inhibition at 1 h, 1 µM [1]: 62%

SMILES: O=C(Nc1ccccc1)OC(COc1ccccc1)Cn1ccnc1 (stereo not drawn)
inhibition at 1 h, 1 µM [1]: 27%

SMILES: O=C(Nc1ccccc1)OC(Cn1ccnc1)c1ccccc1 (stereo not drawn)
inhibition at 1 h, 1 µM [1]: 61%

SMILES: O=C(NCc1ccccc1)OC(Cn1ccnc1)c1ccccc1 (stereo not drawn)
IC50 [2]: 820 nM
Activity [3]: 46.7%
Activity [4]: Dose-Dependent Effect
fold change (FC) [5]: 4
fold change (FC) [7]: 4.8
Activity [11]: 43.67%
Activity [12]: 10.39%
Activity [13]: 55.06%
inhibition at 1 h, 1 µM [1]: 81%
Activity [14]: 30.75%
Activity [15]: 50.16%

Further lines, with some results ahead:

inhibition at 1 h, 1 µM [1]: 61%
SMILES: COc1ccc(NC(=O)OC(COc2ccccc2)Cn2ccnc2)cc1 (stereo not drawn)

inhibition at 1 h, 1 µM [1]: 25%
SMILES: COc1ccc(NC(=O)OC(COc2ccccc2)Cn2ccnc2)c(OC)c1 (stereo not drawn)

IC50 [2]: 860 nM
inhibition at 1 h, 1 µM [1]: 72%
SMILES: O=C(Nc1ccc(Cl)cc1)OC(COc1ccccc1)Cn1ccnc1 (stereo not drawn)
Activity [3]: 25.18%
Activity [4]: Dose-Dependent Effect
fold change (FC) [5]: 4
Activity [6]: Active
fold change (FC) [7]: 4.8
Activity [8]: Dose-Dependent Effect
Activity [9]: 50%
Activity [10]: Active

inhibition at 1 h, 1 µM [1]: 49%
SMILES: COc1ccc(OCC(Cn2cncn2)OC(=O)Nc2ccc(Cl)cc2)cc1 (stereo not drawn)

inhibition at 1 h, 1 µM [1]: 46%
SMILES: O=C(Nc1ccccc1)OC(COc1ccc(Cl)cc1)Cn1cncn1 (stereo not drawn)
